From patent publication US7084268B1, “Carbapenem compound crystals and interjection preparations” (Eisai Co., Ltd., priority 1999, dated 2006) come the findings set out here.

Where a name gives a salt, the structure may show the parent alone.

This data set can be described thus: Solubility in 62.5% (v/v) aqueous organic solvents, quantification in HPLC. The class given is physicochemical. To be noted: for solubility at 30 min: aqueous organic solvent, 20 °C, aqueous with cosolvent or surfactant or cyclodextrin, thermodynamic from solid. As for the experimental part: The solubility of (+)-(1R,5S,6S)-6-[(R)-1-hydroxyethyl]-1-methyl-2-[(2S,4S)-2-[(3R)-pyrrolidine-3-yl-(R)-hydroxymethyl]pyrrolidine-4-yl]thio-1-carbapen-2-em-3-carboxylic acid monohydrochloride monohydrate and trihydrate in various aqueous organic solvents at a concentration of 62.5% (v/v) in water at 20° C. was determined by HPLC in the following manner.

Broadly, the solubility is how much of the substance goes into solution per volume. Read a high solubility as a readily soluble substance. The compound `C[C@@H](O)[C@H]1C(=O)N2C(C(=O)O)=C(S[C@@H]3CN[C@H]([C@H](O)[C@@H]4CCNC4)C3)[C@H](C)[C@H]12` [monohydrate, (+)-(1R,5S,6S)-6-[(R)-1-Hydroxyethyl]-1-methyl-2-[(2S,4S)-2-[(3R)-pyrrolidine-3-yl-(R)-hydroxymethyl]pyrrolidine-4-yl]thio-1-carbapen-2-em-3-carboxylic acid monohydrochloride monohydrate] registered a solubility (62.5% (v/v) diethylene glycol monoethyl ether in water, 20° C., 30 minutes, monohydrochloride monohydrate) of 6560 µg/mL. Moreover, the solubility at 30 min is, setting by setting: (62.5% (v/v) 1-acetoxy-2-methyl ethane in water) 4180 µg/mL; (62.5% (v/v) 1-ethoxy-2-propanol in water) 5060 µg/mL; (62.5% (v/v) 1-methoxy-2-propanol in water) 4120 µg/mL; (62.5% (v/v) 2-butoxyethanol in water) 13300 µg/mL; (62.5% (v/v) 2-ethoxyethanol in water) 6740 µg/mL; (62.5% (v/v) 2-isopropoxyethanol in water) 6030 µg/mL. Also, the solubility at 30 min stood at 5370 µg/mL (62.5% (v/v) 2-methoxyethanol in water); 5930 µg/mL (62.5% (v/v) 3-methoxy-3-methyl-1-butanol in water); 4390 µg/mL (62.5% (v/v) 3-methoxybutanol in water); 6310 µg/mL (62.5% (v/v) IPA (isopropyl alcohol) in water); 15800 µg/mL (62.5% (v/v) acetonitrile in water); 3930 µg/mL (62.5% (v/v) diethylene glycol monomethyl ether in water). The solubility at 30 min by setting is: (62.5% (v/v) dimethyl acetamide in water) 4060 µg/mL; (62.5% (v/v) dimethyl ether in water) 1930 µg/mL; (62.5% (v/v) dimethyl formamide in water) 5030 µg/mL; (62.5% (v/v) dimethyl sulfoxide in water) 7500 µg/mL; (62.5% (v/v) ethanol in water) 6600 µg/mL; (62.5% (v/v) methanol in water) 10200 µg/mL. The solubility at 30 min is 12300 µg/mL (62.5% (v/v) n-propanol in water), 8650 µg/mL (62.5% (v/v) t-butanol in water), 7220 µg/mL (62.5% (v/v) tetrahydrofuran in water) and 2860 µg/mL (62.5% (v/v) triethylene glycol monomethyl ether in water).
